Assays:
[1] = system: blood pressure lowering and heart frequency increasing effects induced by isoproterenol; test: Isoproterenol-induced blood pressure lowering and heart frequency increase in cats; type: in vivo; conditions: LD50/10 i.v., 2 mg/kg i.v. isoproterenol
rabbit ilium = test: Spasmolytic effect on rabbit ilium
[2] = system: blood pressure and heart frequency; type: in vivo, cats
rat intestine = test: Spasms induced in rat intestine by acetylcholine or barium chloride
[3] = Acute toxicity in mice i.v.; conditions: mouse, in vivo, iv
blood pressure = test: Blood pressure, heart frequency and breathing in rabbits; type: in vivo; conditions: i.v. or enterally
Description: (§1) Propanolamines of formula (Ib) [drawing 4] constitute another special subgroup of compounds of formula (I). In formula (Ib) R1 and R2 are as defined above. These compounds have also very advantageous pharmaceutical effects, which, however, differ from the effects of the butanolamines of formula (Ia).

rat Langendorff-heart = test: Coronary flow in rat Langendorff-heart; conditions: 10 μg/0,1 ml dose
Description: as §1

[4] = system: ventricular tadhycardia provoked by Strophantin; test: Strophantin-provoked ventricular tachycardia in anesthetized cats; type: in vivo
Description: (§2) In formula (Ia) R1 and R2 are as defined above, preferably R1 is branched alkyl or cycloalkyl, and R2 is hydrogen.

trachea preparation = test: Antiisoproterenol effect in trachea preparation
Description: (§3) The antiisoproterenol effect of the compound is moderated.

β-receptor = test: Antiisoproterenol effect, overall and concentration curves
Description: as §3

[5] = system: guinea pig isolated left auricle; test: Antiisoproterenol effect in guinea pig isolated left auricle
Description: as §3

[6] = system: arrhythmia induced by 30 μg/kg i.v. aconitin; test: Aconitin-induced arrhythmia in rats; type: in vivo; conditions: LD50/10 i.v.
Description: as §2

[7] = system: ventricular fibrillation threshold; test: Ventricular fibrillation threshold in open-chested anesthetized cats; type: in vivo
Description: as §2

[8] = system: guinea pig isolated left auricle; test: Effective refractory period in guinea pig isolated left auricle (electrophysiology); conditions: 5×10^-5 M
Description: as §3

[9] = system: increase of the T-wave in the electrocardiogram induced by ornithine-vasopressin; test: Ornithine-vasopressin-induced T-wave increase in ECG of rabbits anesthetized with urethane (antianginic); type: in vivo; conditions: LD50/40
Description: From the pharmaceutical point of view the strong antianginic effect of our compounds of formula (Ia) is very important.

CC1CCc2ccc(OCC(O)CNC3CCCCC3)cc2O1 (centres unmarked) [1-(2-methyl-3,4-dihydro-2H-1-benzopyrane-7-yloxy)-3-cyclohexylamino-2-propanol]
inhibition of blood pressure lowering and heart frequency increasing effects induced by isoproterenol [1]: inhibits strongly

Cc1cc(=O)c2ccc(OCC(O)CNC(C)(C)C)cc2o1 (centres unmarked) [1-(2-methyl-4H-1-benzopyrane-4-one-7-yloxy)-3-(1,1-dimethylethylamino)-2-propanol]
spasmolytic effect (rabbit ilium): spasmolytic agent with parasympatholytic and direct striped muscle effects | reduction of blood pressure ([2]; LD50/20 i.v., anesthetized cats): 50.2% | effect on heart frequency ([2]; in vivo, iv): without significantly affecting their heart frequency | effect against spasms induced by acetylcholine (rat intestine; acetylcholine): effective | effect against spasms induced by barium chloride (rat intestine; barium chloride): effective

CC(C)NCC(O)COc1ccc2c(c1)OCCC2 (centres unmarked) [1-(3,4-dihydro-2H-1-benzopyrane-7-yloxy)-3-(1-methylethylamino)-2-propanol]
LD50 [3]: 66 mg/kg | blood pressure lowering ([2]; LD50/320 i.v., anesthetized cats): 33,5%

CC(C)NCC(O)COc1ccc2c(c1)OCC(c1ccccc1)C2 (centres unmarked) [1-(3-phenyl-3,4-dihydro-2H-1-benzopyrane-7-yloxy)-3-(1-methylethylamino)-2-propanol]
blood pressure lowering (blood pressure): significant and long-lasting blood pressure lowering | effect on heart frequency, volume of breathing and frequency of breathing (blood pressure): without affecting the heart frequency, the volume of breathing and the frequency of breathing | coronary flow (rat Langendorff-heart): increases the coronary flow

OC(CCNC1CCCCC1)COc1ccc2c(c1)OC(c1ccccc1)CC2 (centres unmarked) [4-cyclohexylamino-1-(2-phenyl-3,4-dihydro-2H-1-benzopyrane-7-yloxy)-2-butanol]
time for which ventricular tachycardia provoked by Strophantin is suspended [4]: 19 min | concentration with antiisoproterenol effect in trachea preparation (trachea preparation): 10^-4 M | antiisoproterenol effect (β-receptor; overall): moderated | character of the antiisoproterenol effect (β-receptor; runs of the concentration curves): not of a competitive character | concentration with antiisoproterenol effect in left auricle [5]: 50 µM | effect on arrhythmia induced by aconitin [6]: revokes arrhythmia | ventricular fibrillation threshold [7]: remarkably increases | ventricular fibrillation threshold, effect compared with Propranolol ([7]; versus Propranolol): stronger effect that that of Propranolol | effect on effective refractory period compared with Practolol ([8]; versus Practolol): stronger by nearly an order of magnitude than that of Practolol | effect on effective refractory period compared with Propranolol ([8]; versus Propranolol): almost as strong as the effect of Propranolol

OC(CCNC1CCCCC1)COc1ccc2c(c1)OCC(c1ccccc1)C2 (centres unmarked) [4-cyclohexylamino-1-(3-phenyl-3,4-dihydro-2H-1-benzopyrane-7-yloxy)-2-butanol]
elimination of the increase of the T-wave in the electrocardiogram ([9]; rabbits anesthetized with urethane, 0.5 E/kg ornithine-vasopressin): eliminates practically completely | effect on T-wave increase compared with Propranolol ([9]; versus Propranolol): significantly surpasses the effect of Propranolol

From patent publication US4391821A, “7-Substituted benzopyranes and process for the preparation thereof” (Chinoin Gyogyszer es Vegyeszeti Termekek Gyara R.T., priority 1980, dated 1983)
